Results as given in PMC9531438, “Preclinical development of carrier-free prodrug nanoparticles for enhanced antitumor therapeutic potential with less toxicity” (Journal of Nanobiotechnology, 2022).
Like-named read-outs stand apart in the source and are kept apart here. Where a SMILES comes first, the peptide text is derived from it. The star is where a group is joined. Doxorubicin(3'-N) = COc1cccc2c1C(=O)c1c(O)c3c(c(O)c1C2=O)C[C@@](O)(C(=O)CO)C[C@@H]3O[C@H]1C[C@H](N*)[C@H](O)[C@H](C)O1

Tests used:
[1] = system: colon (HT29) tumor tissues; test: Annexin V staining of single tumor cells (flow cytometry); format: in vivo, mice; details: day 9 after treatment, mean
Procedure: (§1) The antitumor activity was evaluated in colon, breast and pancreatic cancer models, which were prepared by subcutaneous injection with 1 × 10^7 HT29, MDA-MB231 or KPC960 cells, respectively. […] The mice were treated once every three days, and tumor volumes were calculated as the largest diameter × smallest diameter^2 × 0.53, every 2 days. The mice with a tumor size of 2000 mm^3 or higher were counted as dead. To analyze the antitumor activity in a single cell level, the tumor tissues were collected on day 9, and single cell were isolated from the tumor tissues using a Tumor Dissociation Kit. After cell counting, single cells were stained with Annexin V for 1 h in room temperature and analyzed via flow cytometer.

KPC960 cells = test: CCK-8 cytotoxicity; format: cell-based, human; details: 48 h treatment
Procedure: (§2) The cytotoxicity of F68-FDOX was assessed via a cell counting kit-8 (CCK-8) assays. First, 1 × 10^5 HT29, MDA-MB231, KPC960 or H9C2 cells were seeded into 96-well cell culture plates. […] Finally, cell viability was measured by a microplate reader (VERSAmaxTM; Molecular Devices Corp., USA) with 450 nm of wavelength.

BALB/c mice [2] = test: Toxicity study after multi-dosage; format: in vivo
Procedure: (§4) The safety of F68-FDOX treatment was assessed by histological and hematological analyses. Briefly, DOX (4 mg/kg), FRRG-DOX (4 mg/kg based on DOX contents) or F68-FDOX (4 mg/kg based on DOX contents) were intravenously injected into BALB/c mice. On day 9 after treatments, major organs were collected from mice, and structural abnormalities and apoptosis in organ tissues were assessed by staining with H&E or TUNEL, respectively. In case of hematological analyses, blood samples were collected from mice on day 9. For the complete blood count (CBC) analyses, each blood sample was mixed with EDTA, and a portion of blood sample was centrifuged at 2100 rpm for 20 min to obtain blood plasma. The following factors in blood samples were measured; albumin/globulin ratio (A/G), troponin-I, albumin (Alb), total protein (TP), alanine aminotransferase (ALT), total cholesterol (T-Chol), blood urea nitrogen (BUN), alkaline phosphatase (ALP), red blood cell (RBC), white blood cell (WBC), mean corpuscular hemoglobin (MCH), mean corpuscular volume (MCV), hematocrit (HCT), hemoglobin (HGB) and platelet (PLT). To assess the safety of F68-FDOX treatment after multiple-dosage, DOX (4 mg/kg), FRRG-DOX (4 mg/kg based on DOX contents) or F68-FDOX (4 mg/kg based on DOX contents) were injected into mice once every three days. Then, histological and hematological analyses were performed as described above.

HT29 tumor = test: Antitumor activity, colon tumor model; format: in vivo
Procedure: as §1

BALB/c mice [3] = test: Toxicity study after single-dosage
Procedure: as §4

mice = details: 5 mg/kg free DOX two times (Total 10 mg/kg); ref [42]; cited from earlier work
Procedure: […] […] Even though same dose of equal drugs was administered into the mice, the outcomes can be varied according to the not only the number and intervals of the administration, but also different reactivity by species, feeding environment and age of the ...

[4] = Pharmacokinetics after intravenous injection; format: in vivo, mice
Procedure: (§3) The 6-week male BALB/c and BALB/c nu/nu mice were purchased from NaraBio (Gyeonggi-do, Republic of Korea). Mice were bred under pathogen-free conditions in the Korea Institute of Science and Technology (KIST). All experiments with animals were performed in compliance with the relevant laws and institutional guidelines of Institutional Animal Care and Use Committee (IACUC; approved number of 2020-123) in Korea Institute of Science and Technology (KIST). […] After treatment, blood samples were collected from mice by cardiac puncture after deep anesthesia at pre-determined times, followed by analysis with HPLC with fluorescence detector. The PK parameters including area under the curves (AUC), clearance (CL), volume of distribution (Vd) and half-life (t1/2) were calculated using a WinNonlin software. […] The fluorescence intensities in the tumor regions were quantified using a Living Image software (PerkinElmer, Waltham, MA, USA). The ex vivo NIRF imaging of collected major organs after 9 h of injection was also performed using IVIS Lumina Series III system. […] For this analysis, each tissue was cut into 8-μm sections using rotary microtome and analyzed via confocal laser scanning microscope (CLSM) equipped with 405 diode (405 nm) and HeNe-Red (633 nm) lasers.

H9C2 cells = test: CCK-8 cytotoxicity; format: cell-based, rat; details: 48 h treatment, normal cardiomyocytes
Procedure: as §2

HT29 tumor-bearing mice [5] = test: Pharmacodynamics, histological analysis of organs and tumor tissues (CLSM); format: in vivo; details: i.v. 4 mg/kg based on DOX, 9 h after injection
Procedure: as §3

HT29 tumor-bearing mice [6] = details: mouse, in vivo, iv, 4 mg/kg
Procedure: as §3

BALB/c mice [7] = details: mouse, in vivo, iv, 10 mg/kg
Procedure: as §4

[8] = format: physicochemical
Procedure: Finally, we developed F68-FDOX as a lyophilized powder form and evaluated the long-term storage stability of lyophilized F68-FDOX powder stored for 3, 6, 12 months in the low (− 4 °C), room (37 °C) or accelerated (60 °C) condition; for these studies, size distribution, chemical structure and purity were analyzed after reconstitution of lyophilized powder stored at each condition (Additional file 1: Fig. S7–S9). […] Taken together, the manufacturing operation for mass production of F68-FDOX was optimized for preclinical development, and their physicochemical characterization, such as size distribution, particle stability, target enzyme-specificity, and even the long-term storage stability was successfully evaluated in vitro.
To prepare carrier-free prodrug nanoparticles, the cancer-specific prodrug was simply synthesized by conjugating cathepsin B-specific cleavable tetrapeptide (Phe-Arg-Arg-Gly; FRRG) to DOX via one-step reaction. […] The FRRG-DOX was purified using Sep-Pak C18 column chromatography and the resulting filtrate was analyzed via RP-HPLC (Agilent 1200 Series HPLC System). […] The long-term storage stability of FRRG-DOX power was assessed after storage of 3, 6, 12 months in the low (− 4 °C), room (37 °C) or accelerated (60 °C) condition, followed by analysis of size, chemical structure and purity as described above. […]

[9] = format: in vitro ADME, mouse
Text: The carrier-free doxorubicin (DOX) prodrug nanoparticles were designed as an alternative formulation to overcome several problems of conventional nano-sized drug delivery system in the terms of technical- and industrial-aspects. […] This absolutely simplified one-step synthesis protocol allowed 100 g batch of preparation as described in “Methods” section. […] In addition, their precise and concise structure allow easy quality control (QC) after synthesis; thus, we could verify the successful preparation of FRRG-DOX by confirming chemical structure, exact mass and purity via ^1H NMR, MALDI-TOF (calculated mass: 1102.17 Da, measured mass: 1102.595 m/z) and HPLC (99%), respectively (Additional file 1: Fig. S2). Importantly, FRRG-DOX molecules self-assembled into prodrug nanoparticles by its intermolecular π-π stacking hydrophobic interactions without any additional carrier materials, resulting in high drug loading (> 50%). […] This was clearly supported by MALDI-TOF measurement, wherein the molecular weights of G-DOX (calculated mass: 600.58 Da, measured mass: 656.4 m/z [M + Li] and 657.4 m/z [M + Li + H]) were confirmed at the newly appeared peak (13 min) in the HPLC spectrum after incubation of F68-FDOX with cathepsin B (Additional file 1: Fig. S6). […]

[10] = treatment five times with 3 days-intervals
[11] = BALB/c mice, i.v. 10 mg/kg based on DOX, single dose
[12] = mice, i.v., 4 mg/kg based on DOX contents, WinNonlin

For `COc1cccc2c1C(=O)c1c(O)c3c(c(O)c1C2=O)C[C@@](O)(C(=O)CO)C[C@@H]3O[C@H]1C[C@H](N)[C@H](O)[C@H](C)O1` [DOX, doxorubicin], the “percentage of apoptotic (Annexin V-positive) tumor cells” value [1] was 17.7 ± 1.51%, the IC50 (KPC960 cells) was 7.32 µM and the “histology of liver, spleen and heart tissues, multi-dosage” value (BALB/c mice [2]; day 7, H&E) was “severe tissue damages”. For the same compound, the “hematological parameters, multi-dosage” value (BALB/c mice [2]; day 7, treatment with 3 days-intervals) was “remarkably got out from the normal range”, the “body weight change, multi-dosage” value (BALB/c mice [2]; [10]) was “severe body weight loss” and the “time within which all mice were dead, multi-dosage” value (BALB/c mice [2]; [10]) was at most 7 days. The “colon tumor volume on day 9 after treatment” value (HT29 tumor; HT29 s.c. tumor, i.v. 4 mg/kg based on DOX once every three days) was 478.75 ± 49.87 mm^3, the “time within which all mice were dead (tumor model)” value (HT29 tumor; HT29 tumor-bearing mice, i.v. 4 mg/kg once every three days) was at most 9 days and the “body weight change, single-dosage” value (BALB/c mice [3]; [11]) was “gradually reduced”. For the same compound, the “time within which all mice were dead, single-dosage” value (BALB/c mice [3]; [11]) was at most 9 days, the “complete blood count (CBC) analyses, single-dosage” value (BALB/c mice [3]; day 9, i.v. 10 mg/kg) was “severe leukopenia, oligocythemia and thrombocytopenia” and the “serological examination (BUN, ALT, troponin-I), single-dosage” value (BALB/c mice [3]; day 9, i.v. 10 mg/kg) was “severe cardiac, renal and hepatic toxicity”. The “major organ tissues stained with H&E or TUNEL, single-dosage” value (BALB/c mice [3]; day 9, i.v. 10 mg/kg based on DOX) was “elevated structural abnormalities with apoptosis”, the “time within which all mice were dead” value (mice) was “within two weeks” and the CL [4, 12] was 3.02 ± 0.638 mL/min/kg. The Vd [4, 12] was 0.304 ± 0.0976 L/kg, the “half-life (t1/2)” value [4, 12] was 1.33 ± 0.23 h and the AUClast ([4]; mice, i.v., 4 mg/kg based on DOX contents, blood, HPLC with fluorescence detector, WinNonlin) was 22.18 ± 4.52 µg·h/mL. For the same compound, the IC50 (H9C2 cells) was 13.8 µM and the “distribution in major organs and tumor tissues (histology)” value (HT29 tumor-bearing mice [5]) was “non-specifically distributed in all the major organs and low tumor accumulation”.
In the case of `COc1cccc2c1C(=O)c1c(O)c3c(c(O)c1C2=O)C[C@@](O)(C(=O)CO)C[C@@H]3O[C@H]1C[C@H](NC(=O)CNC(=O)[C@H](CCCNC(=N)N)NC(=O)[C@H](CCCNC(=N)N)NC(=O)[C@H](Cc2ccccc2)NC(C)=O)[C@H](O)[C@H](C)O1` [FRRG-DOX] (Ac-FRRG-{Doxorubicin(3'-N)}), the “body weight change, single-dosage” value (BALB/c mice [3]; [11]) is reported as “no significant body weight loss”, the AUCinf ([4]; mouse, in vivo, iv, 4 mg/kg) is reported as 407.71 ± 85.81 µg·h/mL and the AUClast ([4]; mouse, in vivo, iv, 4 mg/kg) is reported as 345.99 ± 68.9 µg·h/mL. For the same compound, the CL ([4]; mouse, in vivo, iv, 4 mg/kg) was 0.1692 ± 0.0405 mL/min/kg, the Vd ([4]; mouse, in vivo, iv, 4 mg/kg) was 0.0832 ± 0.03185 L/kg and the “half-life (t1/2)” value ([4]; mouse, in vivo, iv, 4 mg/kg) was 7.96 ± 4.59 h.
With Phe-Arg-Arg-Gly [F68-FDOX] the “fluorescence intensity in tumor tissues relative to FRRG-DOX (NIRF)” value (HT29 tumor-bearing mice [6]) was 2.42–2.71 fold, the “all hematological parameters, single-dosage” value (BALB/c mice [7]) was “in normal range” and the “body weight change, single-dosage” value (BALB/c mice [7]) was “no significant body weight loss”. The “major organ tissues stained with H&E or TUNEL, single-dosage” value (BALB/c mice [7]) was “did not induce noticeable tissue damages”, the “histology of liver, spleen and heart tissues, multi-dosage” value (BALB/c mice [2]; mouse, in vivo) was “without damage to the normal organs” and the AUCinf ([4]; mouse, in vivo, iv, 4 mg/kg) was 1367.44 ± 14.35 µg·h/mL. The AUClast ([4]; mouse, in vivo, iv, 4 mg/kg) was 1281.17 ± 240 µg·h/mL, the CL ([4]; mouse, in vivo, iv, 4 mg/kg) was 0.0488 ± 0.0005 mL/min/kg and the Vd ([4]; mouse, in vivo, iv, 4 mg/kg) was 0.1 ± 0.00269 L/kg. The “time for which a detectable amount remained in the body” value ([4]; mouse, in vivo, iv, 4 mg/kg) was 96 h, the “stability 24 h after reconstitution (size distribution, chemical structure, purity)” value [8] was “no significant changes” and the “time of high stability without significant changes of size and polydispersity index in mouse serum” value [9] was at least 6 days.
